Source: ChEMBL document CHEMBL1147073, “Signal peptide peptidase and gamma-secretase share equivalent inhibitor binding pharmacology” (J Biol Chem, 2007)
Active and inactive are the calls of the source. No cut-off for these calls is given here.

Legend:
Format in all cases: cell-based
[1] = Displacement of [3H]L685458 from human SPP expressed in HEK293 cells
Gamma-secretase [2] = test: Displacement of [3H]IN973 from gamma-secretase in human THP1 cells; settings: thp-1
Gamma-secretase [3] = test: Displacement of [3H]L685458 from gamma-secretase in human THP1 cells; settings: thp-1
HEK293 = test: Inhibition of SPP expressed in HEK293 cells at 10 uM in presence of Prl-PP peptide after 30 mins
[4] = Inhibition of SPP expressed in HEK293 cells in presence of Prl-PP peptide after 30 mins

Structure (SMILES) | IC50 [1] [nM] | IC50 (Gamma-secretase [2]) [nM] | IC50 (Gamma-secretase [3]) [nM] | Activity (HEK293) | IC50 [4] [nM]
CSc1ccc(/C=C2/C(C)=C(CC(=O)O)c3cc(F)ccc32)cc1 [SULINDAC SULFIDE] | 45200 | 332000 | 57100 | – | –
C[C@H](NC(=O)[C@@H](O)c1cc(F)cc(F)c1)C(=O)N[C@@H]1C(=O)N(C)N=Cc2ccccc21 | – | 1.2 | 510 | inactive | –
CC(C)C[C@H](NC(=O)OCc1ccccc1)C(=O)N[C@@H](CC(C)C)C(=O)NCC(=O)CNC(=O)[C@H](CC(C)C)NC(=O)[C@H](CC(C)C)NC(=O)OCc1ccccc1 | 5.3 | 2060 | 8.7 | – | 2000
C[C@H](NC(=O)Cc1cc(F)cc(F)c1)C(=O)N[C@H](C(=O)OC(C)(C)C)c1ccccc1 | 34200 | 6.3 | > 100000 | inactive | –
CCC[C@H](C(N)=O)[C@@H](CC(C)C)C(=O)N[C@H]1N=C(c2ccccc2)c2ccccc2N(C)C1=O | 560 | – | – | inactive | –
CC(C)C[C@H](NC(=O)[C@H](Cc1ccccc1)C[C@@H](O)[C@H](Cc1ccccc1)NC(=O)OC(C)(C)C)C(=O)N[C@@H](Cc1ccccc1)C(N)=O | 10 | 72 | 4.3 | – | 10000
C[C@H](c1ccc(F)cc1CCCC(=O)O)N(c1cc(F)ccc1F)S(=O)(=O)c1ccc(Cl)cc1 | 28700 | 12 | 25600 | inactive | –
